Data published in patent publication US10253039B2, “Inhibitors of bacterial DNA gyrase with efficacy against gram-negative bacteria” (priority 2014, dated 2019).
In brackets after ≈: the same amount, converted by molar mass. Read-outs that look alike come from different tables or passages of the source.

Legend:
Assay type in all cases: cell-based
Streptococcus pyogenes = assay: MIC, 20-strain panel
Description: (§1) A microdilution method in 96-well plates was used and the MIC protocol established by the Clinical Laboratory Standards Institute was followed. From a growing subculture, a 1:10000 inoculum of each strain in Luria-Bertani media was prepared and aliquoted 100 μL in 4 columns of wells, except for the top row wells, which contained 200 μL of inoculum. A solution of gyramide C2 was aliquoted into 3 of the wells containing 200 μL and DMSO was added to the 4th well. The liquid in each of wells was mixed with a multi-channel pipet and 100 μL was transferred to the next well and mixed. The 2-fold dilution was continued down the 96-well plate until 100 μL was left, which was discarded. The plates were incubated at 37° C. with shaking for 16-18 hours. The MIC was determined as the lowest concentration that inhibited growth and had no turbidity by visual inspection.
(§2) Minimum inhibitory concentrations of various gyramide compounds against 20 strains of bacteria were determined using the procedure described above.

E. coli MG1655 = assay: MIC, 20-strain panel; conditions: Escherichia coli, read-out: MIC
Description: as §1, §2

[1] = system: Staphylococcus epidermidis; assay: MIC, 20-strain panel
Description: as §1, §2

[2] = system: Staphylococcus saprophyticus subsp. saprophyticus; assay: MIC, 20-strain panel
Description: as §1, §2

[3] = system: Staphylococcus aureus subsp. aureus; assay: MIC, 20-strain panel; conditions: read-out: MIC
Description: as §1, §2

E. coli JW5503 (deltolC) = assay: MIC, 20-strain panel; conditions: Escherichia coli
Description: as §1, §2

Streptococcus agalactiae = assay: MIC, 20-strain panel
Description: as §1, §2

Shigella flexneri = assay: MIC, 20-strain panel
Description: as §1, §2

[4] = system: Klebsiella pneumoniae subsp. pneumoniae; assay: MIC, 20-strain panel
Description: as §1, §2

[5] = system: Salmonella enterica subsp. enterica typhimurium; assay: MIC, 20-strain panel
Description: as §1, §2

E. coli BW25113 = assay: MIC, microdilution in 96-well plates; conditions: Escherichia coli, read-out: MIC
Description: as §1, §2

Edwardsiella tarda = assay: MIC, microdilution in 96-well plates
Description: as §1, §2

[6] = H: Staphylococcus aureus subsp. aureus
[7] = E: Klebsiella pneumoniae subsp. pneumoniae
[8] = F: Salmonella enterica subsp. enterica Typhimurium
[9] = Staphylococcus aureus subsp. aureus
[10] = Klebsiella pneumoniae subsp. pneumoniae
[11] = Salmonella enterica subsp. enterica Typhimurium

Compound | MIC (Streptococcus pyogenes) | MIC (E. coli MG1655; MG1655, A: E. coli MG1655) | MIC [1] | MIC [2] | MIC [3, 6] | MIC (E. coli JW5503 (deltolC); C: E. coli JW5503 (deltolC)) | MIC (Streptococcus agalactiae) | MIC (Shigella flexneri; G: Shigella flexneri) | MIC [4, 7] | MIC [5, 8] | MIC (E. coli BW25113; BW25113, B: E. coli BW25113) | MIC (Edwardsiella tarda; D: Edwardsiella tarda) | MIC (E. coli MG1655; MG1655, E. coli MG1655) | MIC [3, 9] | MIC (E. coli JW5503 (deltolC); E. coli JW5503 (deltolC)) | MIC (Shigella flexneri) | MIC [4, 10] | MIC [5, 11] | MIC (E. coli BW25113; BW25113, E. coli BW25113) | MIC (Edwardsiella tarda)
COc1ccc(-c2ccc(CN3CC[C@@H](NS(=O)(=O)c4cccc(OC(F)(F)F)c4)C3)cc2)cc1 [Compound 74] | > 8 µg/mL | > 8 µg/mL | > 8 µg/mL | > 8 µg/mL | > 8 µg/mL | 8 µg/mL (≈ 15.8 µM) | > 8 µg/mL | > 8 µg/mL | > 8 µg/mL | > 8 µg/mL | > 8 µg/mL | > 8 µg/mL | – | – | – | – | – | – | – | –
CN1C(=O)Cc2cc(S(=O)(=O)N[C@@H]3CCN(Cc4ccc(OC5CC5)cc4)C3)ccc21 [Compound 181] | > 8 µg/mL | – | > 8 µg/mL | > 8 µg/mL | – | – | > 8 µg/mL | – | – | – | – | – | > 8 µg/mL | > 8 µg/mL | > 8 µg/mL | > 8 µg/mL | > 8 µg/mL | > 8 µg/mL | > 8 µg/mL | > 8 µg/mL
N#Cc1cc(S(=O)(=O)N[C@@H]2CCN(Cc3ccc(OC4CC4)cc3)C2)ccc1F [Compound 166] | > 8 µg/mL | – | > 8 µg/mL | > 8 µg/mL | – | – | > 8 µg/mL | – | – | – | – | – | > 8 µg/mL | > 8 µg/mL | 2 µg/mL (≈ 4.81 µM) | > 8 µg/mL | > 8 µg/mL | ~8 µg/mL (≈ 19.3 µM) | > 8 µg/mL | > 8 µg/mL
O=S(=O)(N[C@@H]1CCN(Cc2ccc(-c3ccc(Cl)cc3)cc2)C1)c1cccc(OC(F)(F)F)c1 [Compound 103] | ~8 µg/mL (≈ 15.7 µM) | > 8 µg/mL | 8 µg/mL (≈ 15.7 µM) | > 8 µg/mL | 8 µg/mL (≈ 15.7 µM) | ~8 µg/mL (≈ 15.7 µM) | > 8 µg/mL | > 8 µg/mL | > 8 µg/mL | > 8 µg/mL | > 8 µg/mL | > 8 µg/mL | – | – | – | – | – | – | – | –
CC(C)Oc1ccc(CN2CC[C@@H](NS(=O)(=O)c3cc(C(F)(F)F)ccc3Cl)C2)cc1 [Compound 140] | > 8 µg/mL | – | > 8 µg/mL | > 8 µg/mL | – | – | > 8 µg/mL | – | – | – | – | – | > 8 µg/mL | > 8 µg/mL | < 0.0625 µg/mL | > 8 µg/mL | > 8 µg/mL | 4 µg/mL (≈ 8.39 µM) | > 8 µg/mL | > 8 µg/mL
O=S(=O)(N[C@@H]1CCN(Cc2ccc(OC3CC3)cc2)C1)c1cc(F)cc(C(F)(F)F)c1 [Compound 152] | > 8 µg/mL | – | > 8 µg/mL | > 8 µg/mL | – | – | > 8 µg/mL | – | – | – | – | – | > 8 µg/mL | > 8 µg/mL | 8 µg/mL (≈ 17.4 µM) | > 8 µg/mL | > 8 µg/mL | > 8 µg/mL | > 8 µg/mL | > 8 µg/mL
COc1ccc(-c2ccc(CN3CC[C@@H](NS(=O)(=O)c4cccc(C#N)c4)C3)cc2)cc1 [Compound 80] | > 8 µg/mL | > 8 µg/mL | > 8 µg/mL | > 8 µg/mL | > 8 µg/mL | > 8 µg/mL | > 8 µg/mL | > 8 µg/mL | > 8 µg/mL | > 8 µg/mL | > 8 µg/mL | > 8 µg/mL | – | – | – | – | – | – | – | –
N#Cc1cccc(S(=O)(=O)N[C@@H]2CCN(Cc3ccc(SC(F)(F)F)cc3)C2)c1 [Compound 20] | > 8 µg/mL | > 8 µg/mL | > 8 µg/mL | > 8 µg/mL | > 8 µg/mL | 8 µg/mL (≈ 18.1 µM) | > 8 µg/mL | > 8 µg/mL | > 8 µg/mL | > 8 µg/mL | > 8 µg/mL | > 8 µg/mL | – | – | – | – | – | – | – | –
O=S(=O)(N[C@@H]1CCN(Cc2ccc(OC3CC3)cc2)C1)c1cc(Cl)cc(C(F)(F)F)c1 [Compound 94] | > 8 µg/mL | > 8 µg/mL | > 8 µg/mL | > 8 µg/mL | > 8 µg/mL | 8 µg/mL (≈ 16.8 µM) | > 8 µg/mL | > 8 µg/mL | > 8 µg/mL | > 8 µg/mL | > 8 µg/mL | > 8 µg/mL | – | – | – | – | – | – | – | –
O=S(=O)(N[C@@H]1CCN(Cc2nc(-c3ccccc3)cs2)C1)c1cccc(C(F)(F)F)c1 [Compound 173] | > 8 µg/mL | – | > 8 µg/mL | > 8 µg/mL | – | – | > 8 µg/mL | – | – | – | – | – | > 8 µg/mL | > 8 µg/mL | > 8 µg/mL | > 8 µg/mL | > 8 µg/mL | > 8 µg/mL | > 8 µg/mL | > 8 µg/mL
CC(C)(C)Oc1ccc(CN2CC[C@@H](NS(=O)(=O)c3cccc(C(F)(F)F)c3)C2)cc1 [Compound 23] | > 8 µg/mL | > 8 µg/mL | > 8 µg/mL | > 8 µg/mL | > 8 µg/mL | 0.5 µg/mL (≈ 1.1 µM) | > 8 µg/mL | > 8 µg/mL | > 8 µg/mL | > 8 µg/mL | > 8 µg/mL | > 8 µg/mL | – | – | – | – | – | – | – | –
